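Grown in 96-well plates, cells were treated for 48 hours with each compound at five concentrations. Insufficient inhibition: endpoint recorded as highest concentration tested. At the GI50, growth is halved.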 Activity calls are given as the source filed them. Rule as the data show it: active = GI50 up to about 1.1 µM and inactive = higher.
What was measured:
Assay in all cases: NCI-60 cell line screen, 48 h
HT-29 = system: HT-29
SF-539 = system: SF-539
TK-10 = system: TK-10
DMS-114 = system: DMS-114
KM12 = system: KM12
A498 = system: A498
SN12C = system: SN12C
786-0 = system: 786-0
M14 = system: M14
UACC-62 = system: UACC-62
SNB-19 = system: SNB-19
UACC-257 = system: UACC-257
OVCAR-3 = system: OVCAR-3
SK-MEL-2 = system: SK-MEL-2
SK-MEL-28 = system: SK-MEL-28
HCT-116 = system: HCT-116

Measured: GI50

N#CC(N)(C(=O)CCC(=O)Nc1cccc(Cl)c1)c1ccc(Cl)cc1 (stereo unspecified)
inactive: HT-29 > 100 µM | SF-539 > 100 µM | TK-10 > 100 µM | DMS-114 > 100 µM | KM12 > 100 µM | A498 > 100 µM | SN12C > 100 µM | 786-0 > 100 µM | M14 > 100 µM | UACC-62 > 100 µM | SNB-19 > 100 µM | UACC-257 > 100 µM | OVCAR-3 > 100 µM | SK-MEL-2 > 100 µM | SK-MEL-28 > 100 µM | HCT-116 > 100 µM

CCOP(=O)(OCC)C1CC(C)OC1=O (stereo unspecified)
inactive: HT-29 > 100 µM | SF-539 > 100 µM | TK-10 > 100 µM | DMS-114 > 100 µM | KM12 > 100 µM | A498 > 100 µM | SN12C > 100 µM | 786-0 > 100 µM | M14 > 100 µM | UACC-62 > 100 µM | SNB-19 > 100 µM | UACC-257 > 100 µM | OVCAR-3 > 100 µM | SK-MEL-2 > 100 µM | SK-MEL-28 > 100 µM | HCT-116 > 100 µM

O=c1c2cccc3cccc(c4n1CCN=4)c32
inactive: HT-29 > 100 µM | SF-539 > 100 µM | TK-10 17.5 µM | DMS-114 > 100 µM | KM12 76.9 µM | A498 40.3 µM | SN12C > 100 µM | 786-0 > 100 µM | M14 73.1 µM | UACC-62 84.5 µM | UACC-257 > 100 µM | OVCAR-3 > 100 µM | SK-MEL-2 63.7 µM | SK-MEL-28 > 100 µM | HCT-116 57.8 µM

Cn1c(=O)nc2n(-c3ccc(Cl)c(C(F)(F)F)c3)c3ccccc3nc-2c1=O
inactive: HT-29 24.3 µM | SF-539 29 µM | TK-10 > 79.6 µM | DMS-114 16.7 µM | KM12 32.9 µM | A498 > 79.3 µM | SN12C 30.9 µM | 786-0 57 µM | M14 26.1 µM | UACC-62 16.6 µM | SNB-19 21.9 µM | UACC-257 17.1 µM | OVCAR-3 14.7 µM | SK-MEL-2 34.7 µM | SK-MEL-28 65 µM | HCT-116 27.2 µM

CCCN(CCC)CCc1cc(C(C)=O)n(S(=O)(=O)c2ccc(C)cc2)c1
inactive: HT-29 45.6 µM | SF-539 > 100 µM | TK-10 > 100 µM | DMS-114 > 100 µM | KM12 > 100 µM | A498 > 100 µM | SN12C > 100 µM | 786-0 > 100 µM | M14 20.3 µM | UACC-62 > 100 µM | SNB-19 > 100 µM | UACC-257 54.6 µM | OVCAR-3 > 100 µM | SK-MEL-2 > 100 µM | SK-MEL-28 > 100 µM | HCT-116 > 100 µM

CC(C)(C)c1cc2ccc(C(N)=O)cc2c(=O)[nH]1
inactive: HT-29 > 100 µM | SF-539 46.8 µM | TK-10 > 100 µM | DMS-114 > 100 µM | KM12 59.3 µM | A498 > 100 µM | SN12C > 100 µM | 786-0 > 100 µM | M14 > 100 µM | UACC-62 > 100 µM | SNB-19 > 100 µM | UACC-257 > 100 µM | OVCAR-3 > 100 µM | SK-MEL-2 > 100 µM | SK-MEL-28 > 100 µM | HCT-116 69.7 µM

O=C(N/N=C/c1cc(-c2ccccc2Cl)c(-c2ccccc2Cl)o1)c1ccncc1
inactive: HT-29 80.5 µM | SF-539 > 100 µM | TK-10 > 100 µM | DMS-114 87.9 µM | A498 > 100 µM | SN12C > 100 µM | 786-0 > 100 µM | M14 > 100 µM | UACC-62 > 100 µM | SNB-19 > 100 µM | UACC-257 > 100 µM | OVCAR-3 43.9 µM | SK-MEL-2 > 100 µM | SK-MEL-28 > 100 µM | HCT-116 > 100 µM

CCOc1ccc2c(c1)[n+]([O-])c(-c1ccccc1)c(N)[n+]2[O-]
inactive: HT-29 > 100 µM | SF-539 51.3 µM | TK-10 > 100 µM | DMS-114 34.9 µM | KM12 97.3 µM | A498 82.6 µM | SN12C > 100 µM | 786-0 > 100 µM | M14 81.5 µM | UACC-62 30.5 µM | SNB-19 > 100 µM | UACC-257 41.5 µM | OVCAR-3 82.2 µM | SK-MEL-2 > 100 µM | SK-MEL-28 33.1 µM

COC(=O)/C(Cl)=C1/CC1COCc1ccccc1 (stereo unspecified)
inactive: HT-29 25 µM | SF-539 23.8 µM | TK-10 30.8 µM | DMS-114 28.8 µM | KM12 28.7 µM | A498 22.6 µM | SN12C 36.6 µM | 786-0 19.7 µM | M14 17 µM | UACC-62 23.9 µM | SNB-19 78.9 µM | UACC-257 34.7 µM | OVCAR-3 23.2 µM | SK-MEL-2 31.9 µM | SK-MEL-28 21.8 µM

Nc1ccc(C(=O)NN2C(=O)C(Cl)C2c2cccc([N+](=O)[O-])c2)cc1 (stereo unspecified)
inactive: HT-29 20.7 µM | SF-539 20.7 µM | TK-10 18.7 µM | DMS-114 18.7 µM | KM12 16.2 µM | A498 28.5 µM | SN12C 19.7 µM | 786-0 18.7 µM | M14 23 µM | UACC-62 21.1 µM | SNB-19 17.3 µM | UACC-257 23.1 µM | OVCAR-3 20.5 µM | SK-MEL-2 16.8 µM | SK-MEL-28 21 µM | HCT-116 17.3 µM

Reference: ChEMBL document CHEMBL1201862, “PubChem BioAssay data set” (2004)
